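Step 1: Grow cells in 96-well plates. Step 2: Expose to compound for 48 hours at 5 concentrations. Step 3: Interpolate endpoints linearly; if unreached, use highest concentration. GI50 = concentration required for 50% inhibition of growth.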 Calls of active or inactive are those of the source. Cut-off read from the data, not from the text of the source: active = GI50 up to about 1.1 µM and inactive = higher.
Tests used:
Assay in all cases: NCI anticancer screen, dose series, 48 h
[1] = tested on: CAKI-1
[2] = tested on: HCC 2998
[3] = tested on: HT-29
[4] = tested on: IGROV-1
[5] = tested on: M14
[6] = tested on: MDA-MB-231
[7] = tested on: MDA-N
[8] = tested on: NCI-H460
[9] = tested on: NCI/ADR-RES
[10] = tested on: OVCAR-5
[11] = tested on: OVCAR-8
[12] = tested on: RPMI-8226
[13] = tested on: SF-268
[14] = tested on: SK-MEL-28
[15] = tested on: SK-OV-3
[16] = tested on: SN12C
[17] = tested on: SR
[18] = tested on: TK-10
[19] = tested on: UACC-257
[20] = tested on: UO-31

Measured: GI50

CC(NC(NC(C)C12CC3CC(CC(C3)C1)C2)=C(C(Cl)=C(Cl)Cl)[N+](=O)[O-])C12CC3CC(CC(C3)C1)C2 (stereo not given)
inactive: [1] 16.9 µM | [2] 23.4 µM | [3] 4.62 µM | [4] 8.02 µM | [5] 16.4 µM | [6] 4.5 µM | [7] 22.7 µM | [8] 4.36 µM | [9] 12 µM | [10] 32.1 µM | [11] 2.77 µM | [12] > 36.7 µM | [13] 21.8 µM | [14] 26.4 µM | [15] 71.1 µM | [16] 7.59 µM | [17] 3.9 µM | [18] 33.3 µM | [19] 14.5 µM | [20] 31.9 µM

C/C(=N\NC(N)=S)C(CN1CCCCC1)C(C1=C(O)c2ccccc2OC1)c1ccccc1 (stereo not given)
inactive: [1] > 100 µM | [2] > 100 µM | [3] > 100 µM | [4] > 100 µM | [5] > 100 µM | [6] > 100 µM | [7] > 100 µM | [8] > 100 µM | [9] > 100 µM | [10] > 100 µM | [11] > 100 µM | [12] 35.2 µM | [13] > 100 µM | [14] > 100 µM | [15] > 100 µM | [16] > 100 µM | [17] > 100 µM | [18] > 100 µM | [19] > 100 µM | [20] > 100 µM
